According to US9242995B2, “Isoxazolopyridine orexin receptor antagonists” (MERCK SHARP & DOHME CORP., priority 2011, dated 2016):

Target: human orexin-2 receptor (Homo sapiens (Human), UniProt O43614)
Assay: radioligand binding assay, hOX2 Bind
Details: membranes prepared from CHO cells expressing the OX2 receptor; read-out: hOX2 Bind hKi
Method: The utility of the compounds in accordance with the present invention as orexin receptor OX1R and/or OX2R antagonists may be readily determined without undue experimentation by methodology well known in the art, including the “FLIPR Ca^2+ Flux Assay” (Okumura et al., Biochem. Biophys. Res. Comm. 280:976-981, 2001). In a typical experiment the OX1 and OX2 receptor antagonistic activity of the compounds of the present invention was determined in accordance with the following experimental method. For intracellular calcium measurements, Chinese hamster ovary (CHO) cells expressing the rat orexin-1 receptor or the human orexin-2 receptor, are grown in Iscove's modified DMEM containing 2 mM L-glutamine, […], 1% hypoxanthine-thymidine supplement, 100 U/ml penicillin, 100 μg/ml streptomycin and 10% heat-inactivated fetal calf serum (FCS). The cells are seeded at 20,000 cells/well into Becton-Dickinson black 384-well clear bottom sterile plates coated with poly-D-lysine. All reagents were from GIBCO-Invitrogen Corp. The seeded plates are incubated overnight at 37° C. and 5% CO2. […] Within the Fluorescent Imaging Plate Reader (FLIPR, Molecular Devices), test compounds are added to the plate in a volume of […] for 5 min and finally 25 μl of agonist is added. Fluorescence is measured for each well at 1 second intervals for 5 minutes and the height of each fluorescence peak is compared to the height of the fluorescence peak induced by 70 pM Ala-6,12 orexin-A with buffer in place of antagonist. […] Alternatively, compound potency can be assessed by a radioligand binding assay (described in Bergman et. al. Bioorg. Med. Chem. Lett. 2008, 18, 1425-1430) in which the inhibition constant (Ki) is determined in membranes prepared from CHO cells expressing either the OX1 or OX2 receptor. The intrinsic orexin receptor antagonist activity of a compound which may be used in the present invention may be determined by these assays. […]

human orexin-2 receptor, sequence (O43614 whole entry): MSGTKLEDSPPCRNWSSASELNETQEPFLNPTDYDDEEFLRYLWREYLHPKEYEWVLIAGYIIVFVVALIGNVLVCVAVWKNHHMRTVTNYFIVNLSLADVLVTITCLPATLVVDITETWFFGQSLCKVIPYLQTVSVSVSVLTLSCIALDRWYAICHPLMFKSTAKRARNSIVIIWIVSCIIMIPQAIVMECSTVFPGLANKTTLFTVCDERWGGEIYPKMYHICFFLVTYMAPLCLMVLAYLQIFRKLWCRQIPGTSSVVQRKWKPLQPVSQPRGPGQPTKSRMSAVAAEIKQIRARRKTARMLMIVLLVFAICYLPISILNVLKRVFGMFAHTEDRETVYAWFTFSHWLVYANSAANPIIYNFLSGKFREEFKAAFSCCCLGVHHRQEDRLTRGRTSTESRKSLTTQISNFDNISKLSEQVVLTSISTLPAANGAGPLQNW

Molecule `COc1ccc(CNC(=O)c2cc(-c3cncc(Br)c3)nc3onc(-c4ccccc4)c23)nc1OC` [Example 1-8, 6-(5-bromopyridin-3-yl)-N-[(5,6-dimethoxypyridin-2-yl)methyl]-3-phenylisoxazolo[5,4-b] pyridine-4-carboxamide] has a Ki of 3.8 nM.
For `COc1ccc(CNC(=O)c2cc(-c3cncc(C)c3)nc3onc(-c4ccccc4)c23)cc1OC` [Example 1-12, N-(3,4-dimethoxybenzyl)-6-(5-methylpyridin-3-yl)-3-phenylisoxazolo[5,4-b]pyridine-4-carboxamide], the Ki was 10.8 nM.
`COc1cc(C)c(CNC(=O)c2cc(-c3cncc(C)c3)nc3onc(-c4cccs4)c23)nc1OC` [Example 1-21, N-[(5,6-dimethoxy-3-methylpyridin-2-yl)methyl]-6-(5-methylpyridin-3-yl)-3-(thiophen-2-yl)isoxazolo[5,4-b]pyridine-4-carboxamide] showed a Ki of 0.7 nM.
